Tests used:
[1] = system: Alternaria leaf spot of apple (Alternaria mali); test: Protective activity test on Alternaria leaf spot of apple; assay type: in vivo; conditions: 500 ppm active ingredient; apple var. Indo, sprayed 6 days before inoculation; no treatment 79.6
[2] = system: black spot of pear (Alternaria kikuchiana); test: Protective activity test on black spot of pear; assay type: in vivo; conditions: 500 ppm active ingredient; pear var. 20-Seiki, sprayed 7 days before inoculation; no treatment 77.8
[3] = system: blue mold of orange (Penicillium italicum); test: Protective activity test on blue mold of orange; assay type: in vivo; conditions: orange fruits var. Unshu dipped 1 minute, index 0-5, 7 days after inoculation, no treatment 5.0
Protocol: Protective activity test on blue mold of orange (Penicillium italicum): Orange fruits (var.: Unshu) were well washed with water and air-dried. Each of the emulsifiable concentrates containing the test compounds was diluted with water to a required concentration and the air-dried orange fruits were dipped in the aqueous solution for 1 minute. After air-drying, the surface of the fruit was inoculated by spraying a spore suspension of Pencillium italicum cultured in a potato agar medium for 5 days. […] The results are shown in the mean value of disease index.

[4] = system: fungicide-resistant strain of black spot fungus (Alternaria kikuchiana) resistant to Polyoxin; test: Fungicidal activity test on fungicide-resistant pathogens: mycelial growth inhibition on agar plate, Polyoxin-resistant strain; assay type: cell-based; conditions: 96 h, 27° C., 4 days, read-out: Percentage of growth inhibition, fungicide-resistant strain; for inhibition at 1 ppm: 1 ppm active ingredient; for inhibition at 10 ppm: 10 ppm active ingredient
[5] = system: wild (susceptible) strain of Alternaria kikuchiana; test: Fungicidal activity test: mycelial growth inhibition on agar plate, wild susceptible strain; assay type: cell-based; conditions: 96 h, 27° C., 4 days, read-out: Percentage of growth inhibition, wild susceptible strain; for inhibition at 1 ppm: 1 ppm active ingredient; for inhibition at 10 ppm: 10 ppm active ingredient

Structure (SMILES)	Disease severity [1]	Disease severity [2]	Mean value of disease index ([3]; 100 ppm active ingredient)	other results
CC(C)C(=O)N1CC(=O)N(c2cc(Cl)cc(Cl)c2)C1=O [Compound 1]	7.2%	4.3%	0.5	
CC(C)CC(=O)N1CC(=O)N(c2cc(Cl)cc(Cl)c2)C1=O [Compound 2]	2.4%	3.0%	0.0	inhibition at 1 ppm [4]: 76%; inhibition at 10 ppm [4]: 95%; inhibition at 1 ppm [5]: 78%; inhibition at 10 ppm [5]: 96%
CC(C)(C)C(=O)N1CC(=O)N(c2cc(Cl)cc(Cl)c2)C1=O [Compound 3]	9.6%	7.4%	0.2	
CC(C)(C)CC(=O)N1CC(=O)N(c2cc(Cl)cc(Cl)c2)C1=O [Compound 4]	5.7%	8.9%	0.4	inhibition at 1 ppm [4]: 61%; inhibition at 10 ppm [4]: 93%; inhibition at 1 ppm [5]: 64%; inhibition at 10 ppm [5]: 92%
CC(C)CC(=O)N1CC(=O)N(c2cc(Br)cc(Br)c2)C1=O [Compound 5]	3.0%	2.6%	0.1	
CCC(C)C(=O)N1CC(=O)N(c2cc(Cl)cc(Cl)c2)C1=O (centres unmarked) [Compound 6]	8.1%	5.5%		
CCC(C)CC(=O)N1CC(=O)N(c2cc(Cl)cc(Cl)c2)C1=O (centres unmarked) [Compound 7]	4.1%	3.7%		
CCC(CC)C(=O)N1CC(=O)N(c2cc(Cl)cc(Cl)c2)C1=O [Compound 8]	3.6%	4.0%		
CCCC(C)C(=O)N1CC(=O)N(c2cc(Cl)cc(Cl)c2)C1=O (centres unmarked) [Compound 9]	1.7%	2.1%		
CC(C)CCC(=O)N1CC(=O)N(c2cc(Cl)cc(Cl)c2)C1=O [Compound 10]	9.9%	9.8%		
CCC(=O)N1CC(=O)N(c2cc(Cl)cc(Cl)c2)C1=O [drawing 37, reference compound]				inhibition at 1 ppm [4]: 45%; inhibition at 10 ppm [4]: 69%; inhibition at 1 ppm [5]: 49%; inhibition at 10 ppm [5]: 68%
CCC(=O)N1CC(=O)N(c2cc(Cl)cc(Cl)c2)C1=O [drawing 38, reference compound]		31.6%		
CCC(=O)N1CC(=O)N(c2cc(Cl)cc(Cl)c2)C1=O [drawing 40, reference compound]	36.8%			
CCC(=O)N1CC(=O)N(c2cc(Cl)cc(Cl)c2)C1=O [drawing 43, reference compound]				Mean value of disease index ([3]; 200 ppm active ingredient): 3.0
CC(=O)N1CC(=O)N(c2cc(Cl)cc(Cl)c2)C1=O [reference compound]				Mean value of disease index ([3]; 200 ppm active ingredient): 2.8
